Experiments:
AlbAB = molecular target: T1, AlbAB (Streptomyces noursei, UniProt Q8GED8+Q8GED9, Q8GED9:S77A); experiment: coupled horseradish peroxidase H2O2 fluorescence assay, Michaelis-Menten fit; assay type: biochemical; conditions: 100 mM Tris pH 8.0, 30 °C, O2, 1 mM 4-hydroxyphenylacetic acid, 0.1 U HRP, 0.25 µM AlbAB
T1 construct: gene albA; AlbA ca. 21 kDa, AlbB ca. 11 kDa; filament of alternating AlbA2 and AlbB2 dimers; FMN covalent at AlbA C115

[1] = molecular target: the molecule itself; experiment: SEC + other: dynamic light scattering; DLS at 25 °C, AlbAB 0.1 mg/mL and AlbB 1 mg/mL in 150 mM NaCl, 20 mM Tris pH 7.5; size exclusion chromatography

T1 sequence (Q8GED9 24-219 S77A, one chain of several): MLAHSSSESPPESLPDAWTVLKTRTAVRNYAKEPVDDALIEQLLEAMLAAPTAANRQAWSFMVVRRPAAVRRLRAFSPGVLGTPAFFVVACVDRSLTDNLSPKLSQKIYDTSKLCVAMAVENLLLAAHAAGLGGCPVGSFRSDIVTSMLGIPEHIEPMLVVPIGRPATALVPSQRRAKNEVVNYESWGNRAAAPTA

| Molecule | KM (AlbAB) | stoichiometry N [1] |
| --- | --- | --- |
| CC(C)C[C@@H]1NC(=O)[C@H](Cc2ccccc2)NC1=O [cyclo(L-Phe-L-Leu)] | velocities for AlbAB and AlbA-S54A/AlbB were then fit to a Michaelis-Menton non-linear regression model |  |
| AlbB expressed alone (His tag removed) (natural protein, Streptomyces noursei, AlbB, Streptomyces noursei; gene PCR-amplified from the AlbAB-encoding pGM1190 vector into pETDuet-1 multiple cloning site 2, with a TEV site to remove the tag; also called His-tagged AlbB; source: E. coli BL21 (DE3), pETDuet-1, purified (His-Trap, TEV cleavage, second His-Trap); not shown: His tag, N-terminal, cleaved) MNPGETVLPPQLREEIALLAVYLLSSGRGLLEEPADYGIYRCTDGARRALQLLDEHGGSTARLTAVRERLDEVMFAPMGEDRDMGAILDDLCRQMADALPEIETP |  | 2 |
